Our source for the IC50 values is ChEMBL document CHEMBL1131677, “Synthesis and biological evaluation of substituted 4-(OBz)phenylalanine derivatives as novel N-type calcium channel blockers” (Bioorg Med Chem Lett, 1999).

The target of the assay is Voltage-dependent N-type calcium channel subunit alpha-1B (Homo sapiens, UniProt Q00975). The assay is described as follows: In vitro N-type [Ca2+] channel blocking potency in IMR-32 human neuroblastoma cells. It is filed as functional, cell-based.
Chain of Voltage-dependent N-type calcium channel subunit alpha-1B (Q00975 whole entry): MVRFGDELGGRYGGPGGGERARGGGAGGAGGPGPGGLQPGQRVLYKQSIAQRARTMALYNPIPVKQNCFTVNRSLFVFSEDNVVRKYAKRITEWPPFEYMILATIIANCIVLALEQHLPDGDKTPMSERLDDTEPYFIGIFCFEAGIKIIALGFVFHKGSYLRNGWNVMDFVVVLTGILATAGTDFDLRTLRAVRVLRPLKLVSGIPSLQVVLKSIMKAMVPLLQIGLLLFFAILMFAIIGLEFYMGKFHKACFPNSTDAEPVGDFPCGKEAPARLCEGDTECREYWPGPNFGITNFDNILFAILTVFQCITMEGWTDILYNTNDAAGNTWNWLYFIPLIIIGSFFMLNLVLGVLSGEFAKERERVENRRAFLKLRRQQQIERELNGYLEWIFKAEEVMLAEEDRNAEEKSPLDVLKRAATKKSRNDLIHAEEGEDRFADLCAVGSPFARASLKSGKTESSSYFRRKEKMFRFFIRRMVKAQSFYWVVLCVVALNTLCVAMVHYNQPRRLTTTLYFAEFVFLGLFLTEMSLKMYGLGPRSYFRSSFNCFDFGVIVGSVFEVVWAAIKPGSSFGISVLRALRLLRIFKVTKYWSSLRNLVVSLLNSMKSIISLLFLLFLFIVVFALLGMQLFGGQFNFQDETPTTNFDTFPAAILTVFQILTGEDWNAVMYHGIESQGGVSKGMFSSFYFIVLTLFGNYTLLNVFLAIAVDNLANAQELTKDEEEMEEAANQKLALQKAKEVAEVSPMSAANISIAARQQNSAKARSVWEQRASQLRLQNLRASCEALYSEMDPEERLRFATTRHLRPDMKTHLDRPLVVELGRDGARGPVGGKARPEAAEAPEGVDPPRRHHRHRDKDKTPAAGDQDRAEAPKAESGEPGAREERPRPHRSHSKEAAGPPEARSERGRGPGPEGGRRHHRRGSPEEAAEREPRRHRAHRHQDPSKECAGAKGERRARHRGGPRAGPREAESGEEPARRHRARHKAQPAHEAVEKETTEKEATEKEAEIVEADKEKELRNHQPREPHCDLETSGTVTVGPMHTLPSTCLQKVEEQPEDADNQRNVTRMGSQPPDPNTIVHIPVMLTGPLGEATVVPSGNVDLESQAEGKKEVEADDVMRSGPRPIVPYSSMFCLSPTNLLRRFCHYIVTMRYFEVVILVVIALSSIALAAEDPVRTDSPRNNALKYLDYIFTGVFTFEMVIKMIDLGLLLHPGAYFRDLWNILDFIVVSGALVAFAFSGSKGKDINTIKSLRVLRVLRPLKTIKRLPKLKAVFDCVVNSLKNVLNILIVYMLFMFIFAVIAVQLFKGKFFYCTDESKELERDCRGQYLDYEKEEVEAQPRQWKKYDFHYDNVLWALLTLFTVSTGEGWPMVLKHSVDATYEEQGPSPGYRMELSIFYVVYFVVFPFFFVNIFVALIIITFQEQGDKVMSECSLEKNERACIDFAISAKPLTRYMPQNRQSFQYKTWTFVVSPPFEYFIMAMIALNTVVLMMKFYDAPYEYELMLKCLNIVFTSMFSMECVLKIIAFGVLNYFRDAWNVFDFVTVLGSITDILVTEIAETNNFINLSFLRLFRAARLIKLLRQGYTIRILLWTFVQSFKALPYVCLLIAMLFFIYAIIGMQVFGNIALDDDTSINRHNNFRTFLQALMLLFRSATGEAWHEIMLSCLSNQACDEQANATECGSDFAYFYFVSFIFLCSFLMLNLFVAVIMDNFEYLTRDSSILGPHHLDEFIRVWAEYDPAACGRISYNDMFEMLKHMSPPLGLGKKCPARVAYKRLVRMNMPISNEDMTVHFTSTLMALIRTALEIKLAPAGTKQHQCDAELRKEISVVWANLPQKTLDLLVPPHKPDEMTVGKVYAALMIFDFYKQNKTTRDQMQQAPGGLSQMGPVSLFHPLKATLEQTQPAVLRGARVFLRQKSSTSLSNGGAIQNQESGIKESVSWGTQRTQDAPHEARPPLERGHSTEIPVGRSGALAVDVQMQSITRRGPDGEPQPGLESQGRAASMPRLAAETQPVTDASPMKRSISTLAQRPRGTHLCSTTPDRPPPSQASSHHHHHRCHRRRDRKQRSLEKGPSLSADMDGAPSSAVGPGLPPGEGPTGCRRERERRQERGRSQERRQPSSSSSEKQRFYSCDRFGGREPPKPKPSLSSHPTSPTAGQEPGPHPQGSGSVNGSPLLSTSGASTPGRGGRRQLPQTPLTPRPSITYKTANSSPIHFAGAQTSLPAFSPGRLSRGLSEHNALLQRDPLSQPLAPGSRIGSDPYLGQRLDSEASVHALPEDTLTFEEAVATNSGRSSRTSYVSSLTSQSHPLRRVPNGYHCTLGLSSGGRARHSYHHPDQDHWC
As to `CC(C)CCN[C@@H](CC(C)C)C(=O)N[C@@H](Cc1ccc(OC(=O)c2ccccc2)cc1)C(=O)NC(C)(C)C`, the half-maximal inhibitory concentration (IC50) (commonly the concentration needed to halve the response being measured) amounted to 300 nM.

Turning to `CC(C)CCN[C@@H](CC(C)C)C(=O)N[C@@H](Cc1ccc(OC(=O)c2ccccc2)cc1)C(=O)OC(C)(C)C`, the IC50 was 400 nM.

On to `CC(C)CCN1CCC(C(C)C)CC1C(=O)N[C@@H](Cc1ccc(OC(=O)c2ccccc2)cc1)C(=O)OC(C)(C)C` (some centres not stated), for which the IC50 is 490 nM.

Consider `CC(C)CCN1C(C)CCCC1C(=O)N[C@@H](Cc1ccc(OC(=O)c2ccccc2)cc1)C(=O)OC(C)(C)C` (some centres not stated), for which the half-maximal inhibitory concentration (IC50) is 320 nM.

`CC(C)CCN(C)[C@H](C(=O)N[C@@H](Cc1ccc(OC(=O)c2ccccc2)cc1)C(=O)NC(C)(C)C)C(C)C`: the IC50 was found to be 830 nM.

On to `CC(C)CCN1CCC(C(=O)N[C@@H](Cc2ccc(OC(=O)c3ccccc3)cc2)C(=O)OC(C)(C)C)CC1`, for which the IC50 is 1500 nM.

Consider `CC(C)CCN(C)[C@H](CC(C)C)C(=O)N[C@@H](Cc1ccc(OC(=O)c2ccccc2)cc1)C(=O)NC(C)(C)C`, for which the IC50 worked out at 370 nM.

In the case of `CC(C)CCN1CCCC(C)C1C(=O)N[C@@H](Cc1ccc(OC(=O)c2ccccc2)cc1)C(=O)OC(C)(C)C` (some centres not stated), the half-inhibitory concentration (IC50) was determined as 1100 nM.

Regarding `CC(C)CCN(C)CC(=O)N[C@@H](Cc1ccc(OC(=O)c2ccccc2)cc1)C(=O)NC(C)(C)C`, the IC50 stood at 1600 nM.

Consider `CC(C)CCN1CCCCC1C(=O)N[C@@H](Cc1ccc(OC(=O)c2ccccc2)cc1)C(=O)OC(C)(C)C` (some centres not stated), for which the IC50 stood at 1000 nM.

`CC(C)CCN1CCC(C)CC1C(=O)N[C@@H](Cc1ccc(OC(=O)c2ccccc2)cc1)C(=O)OC(C)(C)C` (some centres not stated): the concentration for half-maximal inhibition (IC50) amounted to 780 nM.

Regarding `CC(C)CCN1CCN(C)CC1C(=O)N[C@@H](Cc1ccc(OC(=O)c2ccccc2)cc1)C(=O)OC(C)(C)C` (some centres not stated), the IC50 came to 1000 nM.
